Values quoted from earlier work in patent publication US7455864B2, “Melatonin-based composition for improved sleep” (Iomedix Development International Srl, priority 2007, dated 2008).

What was measured:
[1] = system: humans; conditions: transdermal absorption
[2] = system: humans; conditions: melatonin supplementation in humans
[3] = system: humans; conditions: melatonin supplementation in humans; remark: listed apart in the source

Row | Structure (SMILES) | blood pressure [1] | skin temperature [1] | treatment of jet lag [2] | onset of sleep [3]
1 | C=CC(C)(O)CCC=C(C)C (stereo not shown) [linalool] | reduce | reduce |  | 
2 | COc1ccc2[nH]cc(CCNC(C)=O)c2c1 [Melatonin] |  |  | efficacious for treating jet lag | hastening the onset of sleep
